The target in data set [1] is T1, human NaP2b (SLC34A2) (Homo sapiens, UniProt O95436).
T1 construct: host or cells: HEK293
T1 sequence (O95436 1-690): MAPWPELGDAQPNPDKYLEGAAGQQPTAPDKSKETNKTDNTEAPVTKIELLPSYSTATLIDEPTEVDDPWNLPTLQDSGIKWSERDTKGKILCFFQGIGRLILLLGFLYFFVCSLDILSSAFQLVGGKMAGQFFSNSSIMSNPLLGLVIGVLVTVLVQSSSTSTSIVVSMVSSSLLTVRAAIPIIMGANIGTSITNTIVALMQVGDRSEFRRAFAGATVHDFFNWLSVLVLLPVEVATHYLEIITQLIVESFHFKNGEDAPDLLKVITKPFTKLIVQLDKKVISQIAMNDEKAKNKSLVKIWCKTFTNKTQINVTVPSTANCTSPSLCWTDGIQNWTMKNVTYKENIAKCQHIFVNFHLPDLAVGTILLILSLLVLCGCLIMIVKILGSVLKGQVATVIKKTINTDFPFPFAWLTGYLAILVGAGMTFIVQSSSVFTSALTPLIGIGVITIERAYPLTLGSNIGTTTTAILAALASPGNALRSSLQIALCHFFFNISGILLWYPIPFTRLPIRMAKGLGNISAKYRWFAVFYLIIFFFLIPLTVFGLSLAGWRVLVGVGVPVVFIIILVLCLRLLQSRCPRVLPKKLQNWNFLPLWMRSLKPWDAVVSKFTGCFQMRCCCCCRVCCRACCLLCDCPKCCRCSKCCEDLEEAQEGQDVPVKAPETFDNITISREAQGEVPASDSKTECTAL
As to the kind of experiment: NaP2b-mediated Pi transport: 33P phosphate uptake into transfected HEK293 cells. The format is cell-based. The following applies: human protein with threonine inserted after residue 37 and N39D, 100 uM KH2PO4, read-out: pIC50 range for human Nap2b (converted). The method, boiled down: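 Transiently transfected HEK293 cells, human clone carrying Thr insertion after residue 37 and N39D; PiT transport silenced pharmacologically. ^33P-phosphate uptake in sodium buffer (100 uM KH2PO4, pH 7.4) versus choline buffer, 3-30 min at room temperature, twelve concentrations 0.1 nM–30 uM in duplicate; scintillation counting, pIC50 derived.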

In data set [2] the target is T2, rat NaP2b (SLC34A2) (Rattus norvegicus, UniProt Q9JJ09).
T2 construct: host or cells: HEK293
T2 sequence (Q9JJ09 1-695): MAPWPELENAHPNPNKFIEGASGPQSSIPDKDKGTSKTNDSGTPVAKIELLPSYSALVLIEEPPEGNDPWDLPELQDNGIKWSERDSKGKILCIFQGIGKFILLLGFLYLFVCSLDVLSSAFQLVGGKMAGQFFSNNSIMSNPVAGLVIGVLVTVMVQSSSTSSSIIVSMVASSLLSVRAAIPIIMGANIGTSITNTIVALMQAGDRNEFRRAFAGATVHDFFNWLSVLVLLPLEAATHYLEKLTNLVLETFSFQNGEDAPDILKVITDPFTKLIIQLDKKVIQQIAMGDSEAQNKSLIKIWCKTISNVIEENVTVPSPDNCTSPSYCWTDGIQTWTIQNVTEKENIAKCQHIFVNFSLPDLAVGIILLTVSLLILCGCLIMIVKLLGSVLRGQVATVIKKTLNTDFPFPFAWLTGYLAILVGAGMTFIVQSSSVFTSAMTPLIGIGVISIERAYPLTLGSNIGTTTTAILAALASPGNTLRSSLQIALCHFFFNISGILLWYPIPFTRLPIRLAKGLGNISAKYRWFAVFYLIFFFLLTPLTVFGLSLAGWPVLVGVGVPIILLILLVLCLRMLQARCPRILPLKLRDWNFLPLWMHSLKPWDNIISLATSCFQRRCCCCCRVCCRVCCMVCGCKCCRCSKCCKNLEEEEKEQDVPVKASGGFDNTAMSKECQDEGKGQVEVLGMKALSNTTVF
The description is as above. It counts as cell-based. The following applies: 100 uM KH2PO4, PiT-silencing agent, read-out: pIC50 range for rat Nap2b (converted).

Data set [3] in a line: Fecal recovery of orally administered compounds. The format is in vivo, Sprague-Dawley rats. The following applies: rats, oral gavage, nominal 10 mg/kg (actual 7.6-11 mg/kg), feces 0-48 hr after dosing. As for the experimental part: Quantitative determination of test compound level in feces after oral gavage was performed using the same set of animals used to determine test compound concentration in plasma (Example 30). The animals were kept in metabolic cages and feces were collected from the time of dosing until 48 hr after dosing. Upon collection, feces was dried by lyophilization and ground to a visually homogenous powder. Duplicate samples of ground feces from each individual animal were weighed out and extracted using organic solvent. Extracted samples were then diluted into mobile phase and test compound levels were quantitatively determined by LC-MS/MS analysis as described in “Example 30” except that the standard curve was prepared in a feces matrix. Extraction conditions were not optimized for individual compounds, and thus may represent a minimal level of recovery.

The nature of data set [4]: Determination of compound Cmax and AUC after oral gavage. The following applies: Sprague-Dawley, rat plasma, nominal 10 mg/kg (actual 7.6-11 mg/kg), sampling 0.5-4 h. The format is in vivo, Sprague-Dawley rats. The procedure: Sprague-Dawley rats were orally gavaged with test article at a nominal dose of 2.5 or 10 mg/kg and blood was collected at 0.5, 1, 2 and 4 h. Blood samples were processed to plasma using K2EDTA as an anticoagulant. Plasma samples were treated with acetonitrile containing an internal standard, precipitated proteins removed by centrifugation. Supernatants were analyzed by LC-MS/MS and compound concentrations were determined by interpolated from a standard curve prepared in plasma. All compounds were orally dosed at the dosage shown, and pharmacokinetic parameters determined

As usually defined, the AUC is the area under the concentration-time curve, a measure of exposure. Read a low AUC as low exposure. Usually Cmax stands for the highest concentration seen after dosing.

On to `CN(CCN1CCOCC1)C(=O)c1cccc(C(=O)Nc2ccc(N3CCCCC3)cc2C(=O)Nc2ccn(-c3cccc(C(F)(F)F)c3)n2)c1` [Example 11, N1-Methyl-N1-(2-morpholinoethyl)-N3-(4-(piperidin-1-yl)-2-((1-(3-(trifluoromethyl)phenyl)-1H-pyrazol-3-yl)carbamoyl)phenyl)isophthalamide], for which the IC50 in data set [1] and in data set [2] was < 1000 nM throughout. In addition, in data set [3], the “% recovered in feces” value is reported as 47%.
In data set [4], `CN(CCN1CCOCC1)C(=O)c1cccc(C(=O)Nc2ccc(Cl)cc2C(=O)Nc2ccn(-c3cccc(C(F)(F)F)c3)n2)c1` [Example 14, N1-(4-Chloro-2-((1-(3-(trifluoromethyl)phenyl)-1H-pyrazol-3-yl)carbamoyl)phenyl)-N3-methyl-N3-(2-morpholinoethyl)isophthalamide 2,2,2-trifluoroacetate] gave an AUC of 788 ng·h/mL and a Cmax of 487 ng/mL. The IC50 in data set [1] was < 1000 nM. For the same compound, in data set [2], the IC50 is < 1000 nM. Moreover, the “% recovered in feces” value in data set [3] worked out at 6.6%.
For the compound `O=C(O)CCOCCOCCOCCNC(=O)Cc1cccc(SCc2cccc(C(=O)Nc3ccc(N4CCCCC4)cc3C(=O)Nc3ccn(-c4cccc(C(F)(F)F)c4)n3)c2)c1` [Example 26, 2-Oxo-1-(3-((3-((4-(piperidin-1-yl)-2-((1-(3-(trifluoromethyl)phenyl)-1H-pyrazol-3-yl)carbamoyl)phenyl)carbamoyl)benzyl)thio)phenyl)-6,9,12-trioxa-3-azapentadecan-15-oic acid], the AUC in data set [4] is < 3 ng·h/mL. The IC50 in data set [1] and in data set [2] was < 1000 nM in each case. Also, in data set [3], the “% recovered in feces” value worked out at 9.5%.

Values taken from US9289430B2, “Compounds and methods for inhibiting phosphate transport” (Ardelyx, Inc., priority 2010, dated 2016).
